Source: ChEMBL document CHEMBL5291721, “A preclinical secondary pharmacology resource illuminates target-adverse drug reaction associations of marketed drugs” (Nat Commun, 2023)

How the values were obtained:
Histamine H3 receptor = Histamine H3 receptor (Homo sapiens, UniProt Q9Y5N1)
[1] = target: Beta-2 adrenergic receptor (Homo sapiens, UniProt P07550)
Cannabinoid receptor 1 [2] = target: T1, Cannabinoid receptor 1 (Homo sapiens, UniProt P21554); format: functional, cell-based
[3] = target: T2, Alpha-2C adrenergic receptor (Homo sapiens, UniProt P18825); format: functional
T2 sequence (P18825 whole entry): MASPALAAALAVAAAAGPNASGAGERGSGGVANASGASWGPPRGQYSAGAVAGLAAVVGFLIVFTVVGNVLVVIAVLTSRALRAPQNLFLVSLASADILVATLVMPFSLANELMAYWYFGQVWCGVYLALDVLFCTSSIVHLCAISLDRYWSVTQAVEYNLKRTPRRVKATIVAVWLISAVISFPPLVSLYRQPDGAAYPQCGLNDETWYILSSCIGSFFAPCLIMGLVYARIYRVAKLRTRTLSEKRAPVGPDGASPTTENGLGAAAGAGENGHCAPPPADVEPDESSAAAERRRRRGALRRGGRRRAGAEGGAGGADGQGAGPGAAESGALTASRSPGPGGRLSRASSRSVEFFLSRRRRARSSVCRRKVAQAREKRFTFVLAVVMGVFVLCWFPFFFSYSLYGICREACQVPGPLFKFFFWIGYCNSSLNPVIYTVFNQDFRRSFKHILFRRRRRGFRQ

Histamine H1 receptor = Histamine H1 receptor (Homo sapiens, UniProt P35367)
Histamine H1 receptor, sequence (P35367 whole entry): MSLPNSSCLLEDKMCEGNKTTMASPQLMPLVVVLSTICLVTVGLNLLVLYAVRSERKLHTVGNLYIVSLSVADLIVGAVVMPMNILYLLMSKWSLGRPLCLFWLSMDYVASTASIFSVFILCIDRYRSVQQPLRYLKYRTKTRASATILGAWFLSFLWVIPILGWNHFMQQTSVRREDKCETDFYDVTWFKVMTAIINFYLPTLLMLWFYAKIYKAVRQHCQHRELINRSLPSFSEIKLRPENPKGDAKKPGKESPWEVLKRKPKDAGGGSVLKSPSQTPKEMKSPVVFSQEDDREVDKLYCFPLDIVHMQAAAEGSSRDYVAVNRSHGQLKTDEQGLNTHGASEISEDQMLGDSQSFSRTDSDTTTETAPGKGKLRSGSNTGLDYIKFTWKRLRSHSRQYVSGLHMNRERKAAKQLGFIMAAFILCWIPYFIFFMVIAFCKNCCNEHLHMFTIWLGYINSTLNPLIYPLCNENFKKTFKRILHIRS

[4] = target: T3, Alpha-1A adrenergic receptor (Homo sapiens, UniProt P35348); format: functional, cell-based
T3 sequence (P35348 whole entry): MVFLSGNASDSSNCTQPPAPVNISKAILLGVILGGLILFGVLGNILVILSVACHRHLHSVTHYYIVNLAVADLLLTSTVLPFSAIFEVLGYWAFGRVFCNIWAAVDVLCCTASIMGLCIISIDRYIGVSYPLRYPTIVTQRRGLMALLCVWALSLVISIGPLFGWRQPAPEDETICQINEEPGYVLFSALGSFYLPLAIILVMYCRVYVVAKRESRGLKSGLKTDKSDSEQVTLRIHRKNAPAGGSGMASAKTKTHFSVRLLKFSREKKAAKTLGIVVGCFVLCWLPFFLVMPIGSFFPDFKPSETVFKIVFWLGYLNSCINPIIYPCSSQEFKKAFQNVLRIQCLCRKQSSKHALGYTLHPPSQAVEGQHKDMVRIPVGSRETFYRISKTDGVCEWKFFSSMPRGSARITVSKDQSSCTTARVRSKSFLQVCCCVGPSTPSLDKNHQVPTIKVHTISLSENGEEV

[5] = target: Glutamate receptor ionotropic, NMDA 1 (Rattus norvegicus, UniProt P35439)
Androgen receptor [6] = target: T4, Androgen receptor (Rattus norvegicus, UniProt P15207); format: functional
T4 sequence (P15207 whole entry): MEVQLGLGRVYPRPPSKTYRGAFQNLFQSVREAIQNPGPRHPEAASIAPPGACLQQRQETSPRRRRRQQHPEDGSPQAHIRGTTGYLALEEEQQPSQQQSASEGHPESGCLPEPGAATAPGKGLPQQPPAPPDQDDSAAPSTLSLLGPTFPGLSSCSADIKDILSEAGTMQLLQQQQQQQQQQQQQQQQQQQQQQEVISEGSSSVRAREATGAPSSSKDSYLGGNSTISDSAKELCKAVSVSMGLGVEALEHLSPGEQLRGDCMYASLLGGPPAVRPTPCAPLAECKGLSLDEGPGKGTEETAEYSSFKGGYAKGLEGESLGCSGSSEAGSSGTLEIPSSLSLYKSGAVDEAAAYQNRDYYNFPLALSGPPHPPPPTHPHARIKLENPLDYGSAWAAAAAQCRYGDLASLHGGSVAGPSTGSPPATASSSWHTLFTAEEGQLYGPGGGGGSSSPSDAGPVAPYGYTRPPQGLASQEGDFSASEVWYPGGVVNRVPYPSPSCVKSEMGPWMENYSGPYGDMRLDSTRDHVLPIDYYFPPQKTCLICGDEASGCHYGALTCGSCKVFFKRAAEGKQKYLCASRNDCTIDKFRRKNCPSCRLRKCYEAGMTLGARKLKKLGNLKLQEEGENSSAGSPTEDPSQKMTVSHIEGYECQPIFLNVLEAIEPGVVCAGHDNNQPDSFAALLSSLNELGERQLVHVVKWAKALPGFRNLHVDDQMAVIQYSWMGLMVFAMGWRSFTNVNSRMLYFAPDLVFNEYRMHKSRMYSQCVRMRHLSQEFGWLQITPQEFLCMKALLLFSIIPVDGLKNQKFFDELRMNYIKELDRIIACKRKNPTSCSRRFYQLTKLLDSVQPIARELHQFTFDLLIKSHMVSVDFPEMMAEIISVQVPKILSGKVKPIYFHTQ

[7] = target: Voltage-dependent L-type calcium channel subunit alpha-1C (Rattus norvegicus, UniProt P22002); format: functional
Androgen receptor [8] = target: T4, Androgen receptor; format: functional; remark: listed apart in the source
[9] = target: T5, Amine oxidase [flavin-containing] A (Homo sapiens, UniProt P21397); format: functional
T5 sequence (P21397 whole entry): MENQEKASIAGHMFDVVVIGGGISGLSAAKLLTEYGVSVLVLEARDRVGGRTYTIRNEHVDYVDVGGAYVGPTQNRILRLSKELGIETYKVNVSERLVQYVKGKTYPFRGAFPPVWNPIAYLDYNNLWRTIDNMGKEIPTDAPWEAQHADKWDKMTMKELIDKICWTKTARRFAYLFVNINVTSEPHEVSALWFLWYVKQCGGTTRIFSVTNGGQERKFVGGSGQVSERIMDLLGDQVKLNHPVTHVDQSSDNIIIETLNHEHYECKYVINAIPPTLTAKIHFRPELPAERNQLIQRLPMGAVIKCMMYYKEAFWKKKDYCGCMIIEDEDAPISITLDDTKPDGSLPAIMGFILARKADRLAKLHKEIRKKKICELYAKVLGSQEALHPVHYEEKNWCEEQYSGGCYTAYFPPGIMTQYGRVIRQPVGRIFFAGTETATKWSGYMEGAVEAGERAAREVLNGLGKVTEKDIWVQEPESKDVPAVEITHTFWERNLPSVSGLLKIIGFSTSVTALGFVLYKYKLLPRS

Cannabinoid receptor 1 [10] = target: T1, Cannabinoid receptor 1; format: functional, cell-based; remark: listed apart in the source
Mu-type opioid receptor = Mu-type opioid receptor (Homo sapiens, UniProt P35372); experiment: biochemical; format: functional
[11] = target: T6, Alpha-2A adrenergic receptor (Homo sapiens, UniProt P08913); format: functional, cell-based
T6 sequence (P08913 whole entry): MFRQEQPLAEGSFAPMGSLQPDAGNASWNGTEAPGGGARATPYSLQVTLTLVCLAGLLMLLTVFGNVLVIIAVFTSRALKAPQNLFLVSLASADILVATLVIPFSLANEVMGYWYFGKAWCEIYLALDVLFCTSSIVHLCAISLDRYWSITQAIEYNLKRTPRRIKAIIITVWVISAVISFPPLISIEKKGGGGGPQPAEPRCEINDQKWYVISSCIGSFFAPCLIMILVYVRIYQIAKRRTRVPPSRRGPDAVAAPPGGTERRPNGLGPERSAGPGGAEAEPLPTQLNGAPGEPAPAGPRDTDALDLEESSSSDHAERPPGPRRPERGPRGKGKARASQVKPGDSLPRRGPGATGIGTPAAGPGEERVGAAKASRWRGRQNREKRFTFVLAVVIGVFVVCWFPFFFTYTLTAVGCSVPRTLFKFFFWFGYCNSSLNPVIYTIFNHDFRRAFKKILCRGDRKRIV

Histamine H2 receptor = Histamine H2 receptor (Homo sapiens, UniProt P25021); format: functional, cell-based
Histamine H2 receptor, sequence (P25021 whole entry): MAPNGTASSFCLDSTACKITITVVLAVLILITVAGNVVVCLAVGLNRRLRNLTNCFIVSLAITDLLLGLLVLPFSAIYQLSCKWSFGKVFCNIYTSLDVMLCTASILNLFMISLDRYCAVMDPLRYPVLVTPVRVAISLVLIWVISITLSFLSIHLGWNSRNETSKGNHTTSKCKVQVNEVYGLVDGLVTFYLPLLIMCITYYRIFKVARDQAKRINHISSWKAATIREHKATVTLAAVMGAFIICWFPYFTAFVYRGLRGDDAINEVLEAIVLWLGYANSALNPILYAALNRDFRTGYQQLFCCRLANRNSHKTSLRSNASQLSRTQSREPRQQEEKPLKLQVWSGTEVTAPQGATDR

[12] = target: Beta-1 adrenergic receptor (Homo sapiens, UniProt P08588); format: functional
Beta-1 adrenergic receptor, sequence (P08588 whole entry): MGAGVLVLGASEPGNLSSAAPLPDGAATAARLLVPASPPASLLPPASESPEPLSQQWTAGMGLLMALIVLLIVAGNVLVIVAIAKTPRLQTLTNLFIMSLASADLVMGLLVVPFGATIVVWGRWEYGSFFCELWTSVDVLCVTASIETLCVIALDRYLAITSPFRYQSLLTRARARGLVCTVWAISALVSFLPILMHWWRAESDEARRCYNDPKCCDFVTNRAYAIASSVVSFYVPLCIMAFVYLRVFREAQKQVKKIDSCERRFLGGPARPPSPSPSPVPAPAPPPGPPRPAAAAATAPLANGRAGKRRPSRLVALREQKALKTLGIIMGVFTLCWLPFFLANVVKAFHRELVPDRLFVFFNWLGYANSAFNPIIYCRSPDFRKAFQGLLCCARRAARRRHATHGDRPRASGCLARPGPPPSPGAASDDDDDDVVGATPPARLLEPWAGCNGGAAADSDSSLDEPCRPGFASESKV

Acetylcholinesterase = Acetylcholinesterase (Homo sapiens, UniProt P22303); format: functional
Acetylcholinesterase, sequence (P22303 whole entry): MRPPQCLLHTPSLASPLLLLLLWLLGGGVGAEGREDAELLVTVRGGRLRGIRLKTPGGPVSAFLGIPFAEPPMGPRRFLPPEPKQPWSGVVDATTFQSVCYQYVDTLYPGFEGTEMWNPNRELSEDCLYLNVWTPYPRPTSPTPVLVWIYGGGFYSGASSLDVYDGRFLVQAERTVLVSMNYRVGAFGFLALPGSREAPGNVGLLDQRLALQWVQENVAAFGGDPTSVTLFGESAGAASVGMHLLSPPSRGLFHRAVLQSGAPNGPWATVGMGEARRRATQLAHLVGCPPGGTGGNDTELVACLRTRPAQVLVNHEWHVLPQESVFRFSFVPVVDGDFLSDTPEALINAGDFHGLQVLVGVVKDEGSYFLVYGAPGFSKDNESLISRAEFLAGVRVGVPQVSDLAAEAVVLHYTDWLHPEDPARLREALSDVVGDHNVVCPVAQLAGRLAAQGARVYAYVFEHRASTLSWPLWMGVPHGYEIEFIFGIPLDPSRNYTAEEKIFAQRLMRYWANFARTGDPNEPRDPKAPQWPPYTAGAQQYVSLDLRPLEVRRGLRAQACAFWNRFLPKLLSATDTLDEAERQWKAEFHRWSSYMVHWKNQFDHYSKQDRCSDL

Cannabinoid receptor 1 [13] = target: T1, Cannabinoid receptor 1; format: functional
[14] = target: Gamma-aminobutyric acid receptor subunit alpha-1/alpha-2/beta-2/gamma-2 (Homo sapiens, UniProt P14867+P18507+P47869+P47870); format: protein-complex assay
Gamma-aminobutyric acid receptor subunit alpha-1/alpha-2/beta-2/gamma-2, sequence (P14867 whole entry): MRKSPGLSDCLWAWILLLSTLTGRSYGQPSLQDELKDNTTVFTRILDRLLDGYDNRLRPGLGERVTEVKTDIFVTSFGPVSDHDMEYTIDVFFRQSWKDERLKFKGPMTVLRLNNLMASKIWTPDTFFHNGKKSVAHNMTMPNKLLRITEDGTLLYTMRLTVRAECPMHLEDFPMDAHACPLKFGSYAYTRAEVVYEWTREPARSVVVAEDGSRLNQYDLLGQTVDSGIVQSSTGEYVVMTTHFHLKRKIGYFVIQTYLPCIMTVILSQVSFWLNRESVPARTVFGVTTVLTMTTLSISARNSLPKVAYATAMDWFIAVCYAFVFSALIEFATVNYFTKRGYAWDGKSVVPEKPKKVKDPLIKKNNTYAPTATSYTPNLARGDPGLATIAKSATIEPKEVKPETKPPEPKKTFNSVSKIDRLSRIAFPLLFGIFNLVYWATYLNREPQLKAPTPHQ
Gamma-aminobutyric acid receptor subunit alpha-1/alpha-2/beta-2/gamma-2, sequence (P47870 whole entry): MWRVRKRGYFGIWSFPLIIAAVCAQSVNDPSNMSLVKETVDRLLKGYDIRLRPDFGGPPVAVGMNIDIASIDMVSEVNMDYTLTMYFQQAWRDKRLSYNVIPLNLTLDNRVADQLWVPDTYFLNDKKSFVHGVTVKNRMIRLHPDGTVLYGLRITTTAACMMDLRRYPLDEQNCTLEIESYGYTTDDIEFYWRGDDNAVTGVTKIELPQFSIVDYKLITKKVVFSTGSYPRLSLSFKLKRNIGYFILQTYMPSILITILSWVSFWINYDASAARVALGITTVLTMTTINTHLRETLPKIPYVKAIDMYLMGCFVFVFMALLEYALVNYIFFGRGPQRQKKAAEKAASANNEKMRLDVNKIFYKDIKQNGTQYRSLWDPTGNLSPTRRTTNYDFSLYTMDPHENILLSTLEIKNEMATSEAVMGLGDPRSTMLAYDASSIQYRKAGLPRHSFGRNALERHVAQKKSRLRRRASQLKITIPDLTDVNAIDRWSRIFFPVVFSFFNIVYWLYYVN
Gamma-aminobutyric acid receptor subunit alpha-1/alpha-2/beta-2/gamma-2, sequence (P18507 whole entry): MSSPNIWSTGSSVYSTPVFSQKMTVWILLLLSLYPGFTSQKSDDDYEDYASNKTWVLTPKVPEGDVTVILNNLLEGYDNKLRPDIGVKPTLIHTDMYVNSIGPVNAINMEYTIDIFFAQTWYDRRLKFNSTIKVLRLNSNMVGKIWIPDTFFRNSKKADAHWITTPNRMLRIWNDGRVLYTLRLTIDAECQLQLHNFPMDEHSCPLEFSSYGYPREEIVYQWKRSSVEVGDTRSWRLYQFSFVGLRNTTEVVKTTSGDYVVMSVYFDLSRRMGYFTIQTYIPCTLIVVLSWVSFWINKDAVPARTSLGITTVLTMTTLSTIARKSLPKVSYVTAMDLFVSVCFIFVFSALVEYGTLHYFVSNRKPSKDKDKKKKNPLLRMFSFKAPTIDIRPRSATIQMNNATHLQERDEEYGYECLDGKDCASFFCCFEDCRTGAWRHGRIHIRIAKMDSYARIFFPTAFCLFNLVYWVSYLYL
Gamma-aminobutyric acid receptor subunit alpha-1/alpha-2/beta-2/gamma-2, sequence (P47869 whole entry): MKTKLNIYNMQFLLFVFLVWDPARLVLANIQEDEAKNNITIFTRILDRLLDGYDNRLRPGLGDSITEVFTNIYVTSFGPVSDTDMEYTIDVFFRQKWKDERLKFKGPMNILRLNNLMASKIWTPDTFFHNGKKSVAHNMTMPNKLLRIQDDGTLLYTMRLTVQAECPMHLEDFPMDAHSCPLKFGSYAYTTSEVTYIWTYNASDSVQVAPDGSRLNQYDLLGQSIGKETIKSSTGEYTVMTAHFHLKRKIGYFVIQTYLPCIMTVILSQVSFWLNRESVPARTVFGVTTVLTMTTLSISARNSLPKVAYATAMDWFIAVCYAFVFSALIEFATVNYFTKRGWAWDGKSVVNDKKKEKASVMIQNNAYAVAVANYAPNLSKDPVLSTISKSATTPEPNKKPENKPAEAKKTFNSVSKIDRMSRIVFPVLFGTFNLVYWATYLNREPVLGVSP

[15] = target: Sodium channel protein type 5 subunit alpha (Homo sapiens, UniProt Q14524); format: functional, cell-based
Also: assay procedure not described here.

T1 sequence (P21554 whole entry): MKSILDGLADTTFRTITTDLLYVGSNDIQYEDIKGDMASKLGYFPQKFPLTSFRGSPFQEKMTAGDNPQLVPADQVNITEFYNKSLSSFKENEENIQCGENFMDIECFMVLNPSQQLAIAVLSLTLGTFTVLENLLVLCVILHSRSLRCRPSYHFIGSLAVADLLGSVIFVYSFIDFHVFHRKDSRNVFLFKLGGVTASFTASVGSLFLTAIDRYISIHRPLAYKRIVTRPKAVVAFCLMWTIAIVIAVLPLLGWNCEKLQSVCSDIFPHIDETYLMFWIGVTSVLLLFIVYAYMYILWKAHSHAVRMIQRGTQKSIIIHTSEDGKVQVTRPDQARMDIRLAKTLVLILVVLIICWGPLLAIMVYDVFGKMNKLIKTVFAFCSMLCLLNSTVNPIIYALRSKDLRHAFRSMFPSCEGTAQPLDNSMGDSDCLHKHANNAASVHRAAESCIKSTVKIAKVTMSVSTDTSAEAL
Histamine H3 receptor, sequence (Q9Y5N1 whole entry): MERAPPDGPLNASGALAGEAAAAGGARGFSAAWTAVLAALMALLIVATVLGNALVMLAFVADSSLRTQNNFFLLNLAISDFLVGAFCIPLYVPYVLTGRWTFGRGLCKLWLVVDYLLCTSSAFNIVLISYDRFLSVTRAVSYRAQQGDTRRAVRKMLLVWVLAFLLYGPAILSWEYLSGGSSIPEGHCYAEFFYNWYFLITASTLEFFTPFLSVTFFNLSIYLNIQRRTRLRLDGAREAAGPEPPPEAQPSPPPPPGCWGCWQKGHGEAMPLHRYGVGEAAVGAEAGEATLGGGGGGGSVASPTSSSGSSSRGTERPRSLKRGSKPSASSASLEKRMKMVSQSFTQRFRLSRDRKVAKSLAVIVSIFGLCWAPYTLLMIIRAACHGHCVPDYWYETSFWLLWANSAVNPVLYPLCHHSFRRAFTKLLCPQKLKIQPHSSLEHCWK

SMILES | AC50 (Histamine H3 receptor) [µM] | AC50 [1] [µM] | AC50 (Cannabinoid receptor 1 [2]) [µM] | AC50 [3] [µM] | AC50 (Histamine H1 receptor) [µM] | AC50 [4] [µM] | AC50 [5] [µM] | AC50 (Androgen receptor [6]) [µM] | AC50 [7] [µM] | AC50 (Androgen receptor [8]) [µM] | AC50 [9] [µM] | AC50 (Cannabinoid receptor 1 [10]) [µM] | AC50 (Mu-type opioid receptor) [µM] | AC50 [11] [µM] | AC50 (Histamine H2 receptor) [µM] | AC50 [12] [µM] | AC50 (Acetylcholinesterase) [µM] | AC50 (Cannabinoid receptor 1 [13]) [µM] | AC50 [14] [µM] | AC50 [15] [µM]
CCC(=O)OCC(=O)[C@@]1(OC(=O)CC)[C@H](C)C[C@H]2[C@H]3[C@H]([C@@H](O)C[C@@]21C)[C@@]1(C)C=CC(=O)C=C1C[C@H]3Cl [ALCLOMETASONE DIPROPIONATE] | > 30 | > 30 | > 30 | > 30 | > 30 | > 30 | > 30 | > 30 | > 30 | 9.4 | > 30 | 0.58 | > 30 | > 30 | > 30 | > 30 |  |  |  | 
OCCOCCN1CCN(C2=Nc3ccccc3Sc3ccccc32)CC1 [QUETIAPINE] |  |  | > 30 |  |  |  |  |  |  |  |  | > 30 |  |  |  |  | > 30 | > 10 | > 30 | 
N#C[C@@H]1C[C@@H]2C[C@@H]2N1C(=O)[C@@H](N)C12CC3CC(CC(O)(C3)C1)C2 [SAXAGLIPTIN ANHYDROUS] |  |  |  |  |  |  |  |  |  |  |  |  |  |  |  |  |  |  |  | > 15
